# According to article PMC6370799, “Flavones hydroxylated at 5, 7, 3′ and 4′ ameliorate skin fibrosis via inhibiting activin receptor-like kinase 5 kinase activity” (Cell Death & Disease, 2019):
# Molecular target: T1, activin receptor-like kinase 5 (ALK5) (Homo sapiens, UniProt P36897)
# T1 construct: gene TGFBR1; GST-ALK5
# T1 sequence (P36897 34-503): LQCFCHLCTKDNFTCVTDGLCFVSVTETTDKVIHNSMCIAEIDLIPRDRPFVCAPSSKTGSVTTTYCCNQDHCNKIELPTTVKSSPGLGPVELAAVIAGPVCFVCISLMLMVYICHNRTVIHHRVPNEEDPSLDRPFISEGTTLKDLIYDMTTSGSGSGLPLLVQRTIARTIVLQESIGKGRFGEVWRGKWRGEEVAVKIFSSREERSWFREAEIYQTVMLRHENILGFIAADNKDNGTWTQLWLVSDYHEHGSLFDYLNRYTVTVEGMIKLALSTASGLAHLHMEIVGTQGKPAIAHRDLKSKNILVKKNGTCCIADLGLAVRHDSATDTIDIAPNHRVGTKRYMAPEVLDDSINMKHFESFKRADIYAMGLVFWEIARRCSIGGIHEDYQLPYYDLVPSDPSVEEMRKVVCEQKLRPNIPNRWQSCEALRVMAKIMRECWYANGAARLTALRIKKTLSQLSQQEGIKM
# Experiment: LanthaScreen Eu kinase binding assay (TR-FRET tracer displacement); also in vitro GST-Smad3 phosphorylation assay
row,Structure (SMILES),IC50 [µM]
1,O=c1cc(-c2ccc(O)c(O)c2)oc2cc(O)cc(O)c12 [luteolin],1.06
2,O=c1c(O)c(-c2cc(O)c(O)c(O)c2)oc2cc(O)cc(O)c12 [myricetin],4.08
3,O=c1c(O)c(-c2ccc(O)c(O)c2)oc2cc(O)cc(O)c12 [quercetin],1.48
